Experimental data as given in patent US8367873B2, “Phenyl-substituted bicyclooctane-1,3-dione derivatives” (Bayer Cropscience AG, priority 2008, dated 2013).

Columns and labels:
Type in all cases: in vivo
Alopecurus myosuroides [1] = test: Herbicidal pre-emergence action; conditions: pre-emergence method, 80 g/ha, greenhouse, visual assessment vs untreated controls
Outline: (§1)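 Test compounds, as wettable powder suspensions with 0.2% wetting agent at a water rate of 600 l/ha, were applied in different amounts to the covering soil over freshly sown seeds in sandy loam. Emergence damage was rated visually in percent against untreated plants after three weeks under greenhouse conditions.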

Echinocloa crus-galli [2] = test: Herbicidal pre-emergence action; conditions: pre-emergence method, 80 g/ha, greenhouse, visual assessment vs untreated controls
Outline: as §1

Lolium multiflorum [3] = test: Herbicidal pre-emergence action; conditions: pre-emergence method, 80 g/ha, greenhouse, visual assessment vs untreated controls
Outline: as §1

Setaria viridis [4] = test: Herbicidal pre-emergence action; conditions: pre-emergence method, 80 g/ha, greenhouse, visual assessment vs untreated controls
Outline: as §1

Alopecurus myosuroides [5] = test: Herbicidal post-emergence action; conditions: post-emergence method, 80 g/ha
Outline: (§2)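 Greenhouse-grown weeds were treated post-emergence at the one-leaf stage, two to three weeks after sowing in sandy loam. Compounds formulated as WP were sprayed at various rates in 600 l/ha water with 0.2% wetting agent. Damage was scored visually after about three weeks versus untreated controls (0% = like control, 100% = dead).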

Echinocloa crus-galli [6] = test: Herbicidal post-emergence action; conditions: post-emergence method, 80 g/ha
Outline: as §2

Lolium multiflorum [7] = test: Herbicidal post-emergence action; conditions: post-emergence method, 80 g/ha
Outline: as §2

Setaria viridis [8] = test: Herbicidal post-emergence action; conditions: post-emergence method, 80 g/ha
Outline: as §2

[9] = system: monocotylidonous and dicotylidonous weed and crop plants; test: Herbicidal pre-emergence action (other test plants); conditions: pre-emergence method, 80 g/ha, greenhouse, visual assessment vs untreated controls
Outline: as §1

[10] = system: monocotylidonous and dicotylidonous weed and crop plants; test: Herbicidal post-emergence action (other test plants); conditions: post-emergence method, 80 g/ha
Outline: as §2

| SMILES | herbicidal effect ALOMY (Alopecurus myosuroides [1]) [%] | herbicidal effect ECHCG (Echinocloa crus-galli [2]) [%] | herbicidal effect LOLMU (Lolium multiflorum [3]) [%] | herbicidal effect SETVI (Setaria viridis [4]) [%] | herbicidal effect against ALOMY (Alopecurus myosuroides) (Alopecurus myosuroides [5]) [%] | herbicidal effect against ECHCG (Echinochloa crus-galli) (Echinocloa crus-galli [6]) [%] | herbicidal effect against LOLMU (Lolium multiflorum) (Lolium multiflorum [7]) [%] | herbicidal effect against SETVI (Setaria viridis) (Setaria viridis [8]) [%] | herbicidal effect AVEFA [9] [%] | herbicidal effect against AVEFA (Avena fatua) [10] [%] |
| --- | --- | --- | --- | --- | --- | --- | --- | --- | --- | --- |
| Cc1cc(C)c(C2=C(OC(=O)C(C)(C)C)C3CC4(COC(C)(C)O4)CC3C2=O)c(C)c1 (mixture of isomers) [I-b-48] | 80 | 0 | 70 | 0 | 90 | 90 | 90 | 80 | 20 | 40 |
| CCc1cc(C)cc(CC)c1C1=C(OC(=O)OC)C2CC3(CC2C1=O)OCCS3 (mixture of isomers) [I-c-31] | 90 | 60 | 0 | 60 | 70 | 100 | 100 | 90 | 80 | 90 |
| CCc1cc(C)cc(CC)c1C1=C(OC(=O)C(C)C)C2CC3(CC2C1=O)OCCS3 (mixture of isomers) [I-b-21] | 80 | 80 | 100 | 20 | 90 | 100 | 100 | 90 | 80 | 90 |
| C=C1COC2(CC3C(=O)C(c4c(CC)cc(C)cc4CC)=C([O-])C3C2)OC1.[Na+] (centres unmarked) [I-f-20] | 100 | 100 | 100 | 100 | 100 | 100 | 100 | 100 | 70 | 100 |
| CCc1cc(C)cc(C)c1C1=C(O)C2CC3(CC2C1=O)OCCCCO3 (centres unmarked) [I-a-61] | 70 | 80 | 100 | 60 | 90 | 100 | 100 | 90 | 60 | 90 |
| CCc1cc(C)cc(CC)c1C1=C(O)C2CC3(CC2C1=O)OCCS3 (mixture of isomers) [I-a-35] | 80 | 70 | 100 | 70 | 100 | 100 | 100 | 90 | 80 | 80 |
| CCc1cc(C)cc(CC)c1C1=C(O)C2CC(=NOCC(F)(F)F)CC2C1=O (centres unmarked) [I-a-70] | 80 | 80 | 80 | 60 | 90 | 100 | 100 | 60 | 60 | 0 |
| COC(=O)OC1=C(c2c(C)cc(C)cc2C)C(=O)C2CC3(CC12)OCC=CCO3 (racemic) [I-c-52] | 60 | 50 | 100 | 70 | 100 | 90 | 100 | 100 | 70 | 80 |
| COc1cc(C)cc(C)c1C1=C([O-])C2CC3(CC2C1=O)OCCCO3.[Na+] (centres unmarked) [I-f-4] | 0 | 90 | 100 | 50 | 100 | 100 | 100 | 100 | 50 | 90 |
| COC(=O)OC1=C(c2c(C)cc(C)cc2C)C(=O)C2CC3(CC12)OCC(C)CO3 (mixture of isomers) [I-c-53] | 100 | 0 | 90 | 60 | 100 | 90 | 100 | 90 | 50 | 80 |
| CCC(=O)OC1=C(c2c(CC)cc(C)cc2CC)C(=O)C2CC3(COC(C)(C)O3)CC12 (centres unmarked) [I-b-2] | 90 | 30 | 100 | 40 | 100 | 90 | 100 | 80 | 50 | 60 |
| CCc1cc(C)cc(CC)c1C1=C(OC(=O)COC)C2CC3(COC(C)(C)O3)CC2C1=O (centres unmarked) [I-b-4] | 90 | 70 | 100 | 60 | 100 | 100 | 100 | 60 | 50 | 90 |
| CCc1cc(C)cc(CC)c1C1=C(OC(=O)C(C)(C)C)C2CC3(COC(C)(C)O3)CC2C1=O (centres unmarked) [I-b-8] | 100 | 90 | 100 | 90 | 90 | 80 | 100 | 60 | 80 | 70 |
| CCc1cc(C)cc(C)c1C1=C(OC(=O)C(C)C)C2CC3(COC(C)(C)O3)CC2C1=O (centres unmarked) [I-b-69] | 100 | 100 | 100 | 80 | 90 | 100 | 100 | 60 | 80 | 10 |
